Assay results from US20100190737A1, “COMPOSITIONS COMPRISING INOSINE AND OROTIC ACID AND METHODS OF USE THEREOF FOR THE TREATMENT OF CERTAIN HEART CONDITIONS AND ENHANCEMENT OF WORK CAPACITY” (NUTRITIONAL RESEARCH GROUP LLC, priority 2009, published 2010).
“And” between values parts separate entries of the source, which are not always exact repeats. Equal values may be shown once.

What was measured:
[1] = tested on: rats with experimental aortic stenosis; test: Long term (12 month) experimental aortic stenosis; format: in vivo, rat; settings: for Mortality %: 12 month study, 15 rats per group, inosine 25, potassium orotate 50 mg/kg/day from day 45 for 10.5 months, untreated stenosis 47
Procedure: A 12 month study using 60 white unbred male rats with initial body weights of 110-120 g, divided into four experimental groups, each group with 15 rats. Group I included intact animals (controls); Group II—rats with experimental aortic stenosis (untreated stenosed controls); Group III rats with experimental aortic stenosis given inosine in doses of 25 mg/kg/day; and Group IV rats with experimental aortic stenosis given both inosine and an orotic acid (in the instant study potassium orotate was used, however, as the orotic acid comprises 93-95% percent of any of the orotates, the results achieved are indicative of usage of any of the orotates including the potassium orotate used herein) combination in doses of 25 and 50 mg/kg/day, respectively, intragastrically, using a metal curved tube, beginning from the 45th day after the creation date of the abdominal aortic stenosis, and continuing for 10.5 months. The abdominal aortic stenosis was produced by the method of Beznak, referred to hereinabove, modified by Kogan, referred to above.
During the experimental period the animals in all four groups had regular measurements (recordings) of body weight and the 3-standard lead EKG-ms and 5-plane pericardial vector-cardiograms (VCG). At the beginning and end of the experimental period they also underwent tests for the endurance of a single, dosed physical exercise—forced swimming in a pool at 28-30° C., until maximally exhausted. Specifically, an animal had fixed to its tail a lead weight weighing approximately 7.5% percent of the animal's body weight became submerged due to the inability to continue swimming. At the end of the experimental period, the animals were sacrificed, and their hearts, thymuses, livers, adrenals and thyroids were weighed and their relative weights per 100 g body weight were calculated and recorded. Histological figures of sectioned cardiac muscle stained with hematoxilin-eosin were prepared by Van Hison's technique and examined for any attendant alterations in the normal histology of the heart. During the experiment, (untreated aortic stenosis) 8 of the 15 rats in Group II died, while in Group III (treated stenosis w/inosine) and Group IV (treated stenosis w/inosine and potassium orotate)—only 3 rats in each group died. […] The observed time period wherein the rats could swim were as follows: Groups I animals 45±2.0 minutes; Group II 6.5±2.1 minutes; Group III 16±1.2 minutes; and Group IV 32±4 minutes, respectively. Thus, the group receiving the combination of inosine and potassium orotate performed far better than Group II (untreated stenosis) and had doubled the work capacity of Group III (treated with inosine only). The relative weight of the heart in animals in Groups II, III and IV was higher than in Group I (control group) by 67%, 36% and 56%, respectively. (See Tables 2 A-B). The hearts of Group II animals were in the state of eccentric hypertrophy which explains the higher weight (see FIG. 5). The left ventricular wall in the animals of Group II was 8% thinner than in rats of Group I as a result of the eccentric condition. In rats of Groups III and IV the left ventricular wall was 30% and 46% thicker, respectively, than the rats in group I and they were all in the state of concentric heart hypertrophy.

white rats = test: Long-term (6 months) work capacity in trained and non-trained rats; settings: for Glycogen in m. quadriceps, After work / Glycogen in m. quadriceps, In rest: end of experiments; for Swimming time After 6 mo.: INO 25 mg/kg, PO 50 mg/kg
Procedure: Seventy two white rats were randomly placed in 6 groups (12 animals each), to test the effectiveness of training and to determine morphological and physiological alterations in the rats. In Group I, control rats were nontrained and not administered either of inosine or the combination of inosine and orotate; Group II comprised non-trained rats to which were administered inosine (25 mg/kg/body weight; Group III comprised non-trained rats to which were administered the combination of inosine plus potassium orotate (25 mg/kg/body weight of inosine and 50 mg/kg/body weight potassium orotate); Group IV comprised trained rats that were not administered either of inosine or the combination of inosine and orotate; Group V comprised trained rats to which was administered inosine alone (25 mg/kg/body weight), and Group VI comprised trained rats to which was administered the combination of inosine plus potassium orotate (25 mg/kg/body weight of inosine and 50 mg/kg/body weight potassium orotate).
Training of rats consisted of their forced swimming in a water bath (28-30° C.) with a weight fixed on their backs (7.5% of the rat body weight). During the first two weeks the animals swam daily for 5-10 minutes, after which we determined the individual maximum time of swimming to exhaustion (i.e. maximum work capacity) for each animal and then calculated the mean maximum time for each group. After 2 weeks these initial maximum work capacity values were used for planning and performing additional swimming training.
The functional condition of the rats at rest was estimated from their work capacity (maximum swimming time), body weight increase, EKG tests, oxygen consumption and sodium and potassium levels in the myocardium in a relatively quiet state. The morphological state of the heart and other viscera were rated from their absolute and relative weights, and also from histological and histochemical examinations of the myocardium. Also determined were the amounts of glycogen in the m. quadriceps (quadriceps group of muscles) of the hip, the myocardium and the liver. All the quantitative results obtained were processed with conventional statistical procedures.

OC[C@H]1O[C@@H](n2cnc3c(O)ncnc32)[C@H](O)[C@@H]1O [inosine]
EKG QRS 1½ months ([1]; 1½ months (before treatment)): 0.021 ± 0.004 s | EKG R Wave Voltage 1½ months ([1]; 1½ months (before treatment)): 0.38 ± 0.05 mV | EKG Stroke Index 1½ months ([1]; 1½ months (before treatment)): 47 ± 10% | Heart Rate 1½ months ([1]; 1½ months (before treatment)): 410 ± 11 beats/min | T Wave Voltage 1½ months ([1]; 1½ months (before treatment)): 0.21 ± 0.01 mV | Mortality % [1]: 20% | Mortality % ([1]; listed as Inosine): 20% | EKG QRS 12 months ([1]; 12 months): 0.022 ± 0.001 s | EKG R Wave Voltage 12 months ([1]; 12 months): 0.9 ± 0.09 mV | EKG Stroke Index 12 months ([1]; 12 months): 34 ± 1.2% | Heart Rate 12 months ([1]; 12 months): 420 ± 16 beats/min | T Wave Voltage 12 months ([1]; 12 months): 0.29 ± 0.05 mV | left ventricular wall thicker than in Group I ([1]; 12 months): 30% | relative weight of the heart higher than in Group I (control) ([1]; 12 months): 36% | QRS-T angle 120° to 180° ([1]; 12 months after surgery): 5 | Relative weight of Heart ([1]; 12 months after surgery): 387 ± 9.5 mg/100 g | Thickness of Left Ventricular Wall ([1]; 12 months after surgery): 3.9 ± 0.14 mm | VGC QRS Amplitude ([1]; 12 months after surgery): 3.2 ± 0.12 mV | VGC QRS Area ([1]; 12 months after surgery): 8.3 ± 1.1 cm^2 | VGC QRS Not closed ([1]; 12 months after surgery): 58% | VGC T Amplitude ([1]; 12 months after surgery): 0.6 ± 0.01 mV | Working capacity (min) 1½ months ([1]; forced swimming, 1½ months after surgery (treatment began on the 45th day)): 43 ± 4.6 min | Working capacity (min) 12 months ([1]; forced swimming, 12 months after surgery, 10.5 months of treatment): 16 ± 1.2 min and 16 ± 1.3 min | appearance of the myocardium, light micrographs (FIG. 6) ([1]; haemotoxylin-eosin stained sections): normal appearance | rats that died during the experiment ([1]; of 15 rats per group, untreated stenosis 8): 3 rats | development of cardiac eccentric hypertrophy ([1]; prolonged administration): prevented development of cardiac eccentric hypertrophy | ultrastructure of left ventricular myocardium, mitochondria (FIG. 7) ([1]; rat, in vivo): normal sized mitochondria | critical heart weight enhanced by ([1]; versus critical weight of rats with the same body weight): 16% | animal body weights (white rats; after 6 months): did not materially alter animal body weights | HEART RATE (white rats; after 6 months training): 300 ± 5.2 beats per minute | PQ (white rats; after 6 months training): 0.047 ± 0.03 | QRS (white rats; after 6 months training): 0.031 ± 0.004 | QT (white rats; after 6 months training): 0.076 ± 0.001 | Systolic Index (white rats; after 6 months training): 38 ± 6.3 | ΣR (white rats; after 6 months training): 17 ± 0.5 mm | toxic effects on the functional state of the animals, morphology of the myocardium (white rats; rat, in vivo): did not manifest any toxic effects | Heart weight after 6 mo. (white rats; trained rats): 359 ± 3.9 mg/100gk BW | ORGAN WEIGHT Heart (white rats; trained rats): 359.3 ± 4.5 mg PER 100 GRAMs Body Weight | P/S In all rats group (white rats; trained rats): 1.34 ± 0.12 | P/S In quiet state (white rats; trained rats): 1.16 ± 0.08 | P/S In rat sacrificed after intense physical exercise (white rats; trained rats): 1.55 ± 0.04 | Potassium (myocardium) (white rats; trained rats): 0408 ± 0.015 mcq/gram dry tissue | Sodium (myocardium) (white rats; trained rats): 0.304 ± 0.018 mcq/gram dry tissue | Swimming time Before (white rats; trained rats): 65 ± 6.6 min | Glycogen in m. quadriceps, After work (white rats; trained rats): 558 ± 13.4 | Glycogen in m. quadriceps, In rest (white rats; trained rats): 889 ± 26.0 | Swimming time After 6 mo. (white rats; trained rats, trained control 142 ± 2.4): 180 ± 3.4 min | Heart weight after 6 mo. (white rats; untrained rats): 302 ± 91 mg/100gk BW | ORGAN WEIGHT Heart (white rats; untrained rats): 309.4 ± 9.7 mg PER 100 GRAMs Body Weight | Oxygen consumption End of experiment (white rats; untrained rats): 26.0 ± 0.82 ml/min/kg BW | P/S In all rats group (white rats; untrained rats): 1.85 ± 0.05 | P/S In quiet state (white rats; untrained rats): 2.01 ± 0.3 | P/S In rat sacrificed after intense physical exercise (white rats; untrained rats): 1.67 ± 0.09 | Potassium (myocardium) (white rats; untrained rats): 0481 ± 0.03 mcq/gram dry tissue | Sodium (myocardium) (white rats; untrained rats): 0.261 ± 0.018 mcq/gram dry tissue | Swimming time Before (white rats; untrained rats): 65 ± 5.0 min | Glycogen in m. quadriceps, After work (white rats; untrained rats): 450 ± 28.3 | Glycogen in m. quadriceps, In rest (white rats; untrained rats): 829 ± 42.0 | Swimming time After 6 mo. (white rats; untrained rats): 70 ± 4.0 min | HEART RATE (white rats; untrained, after 6 months): 452 ± 8.6 beats per minute | PQ (white rats; untrained, after 6 months): 0.054 ± 0.003 | QRS (white rats; untrained, after 6 months): 0.026 ± 0.003 | QT (white rats; untrained, after 6 months): 0.06 ± 0.001 | Systolic Index (white rats; untrained, after 6 months): 42.5 ± 9.7 | ΣR (white rats; untrained, after 6 months): 14 ± 0.7 mm
